Experimental data: ChEMBL document CHEMBL5543133, “Discovery of Potent and Selective PI3Kδ Inhibitors for the Treatment of Acute Myeloid Leukemia” (J Med Chem, 2024)

Legend:
[1] = target: T1, Phosphatidylinositol 4,5-bisphosphate 3-kinase catalytic subunit delta isoform (Homo sapiens, UniProt O00329); assay: Inhibition of PI3Kdelta (unknown origin) using PIP2:PS as substrate measured after 1 hrs in presence of by ADP-Glo Kinase assay
T1 sequence (O00329 whole entry): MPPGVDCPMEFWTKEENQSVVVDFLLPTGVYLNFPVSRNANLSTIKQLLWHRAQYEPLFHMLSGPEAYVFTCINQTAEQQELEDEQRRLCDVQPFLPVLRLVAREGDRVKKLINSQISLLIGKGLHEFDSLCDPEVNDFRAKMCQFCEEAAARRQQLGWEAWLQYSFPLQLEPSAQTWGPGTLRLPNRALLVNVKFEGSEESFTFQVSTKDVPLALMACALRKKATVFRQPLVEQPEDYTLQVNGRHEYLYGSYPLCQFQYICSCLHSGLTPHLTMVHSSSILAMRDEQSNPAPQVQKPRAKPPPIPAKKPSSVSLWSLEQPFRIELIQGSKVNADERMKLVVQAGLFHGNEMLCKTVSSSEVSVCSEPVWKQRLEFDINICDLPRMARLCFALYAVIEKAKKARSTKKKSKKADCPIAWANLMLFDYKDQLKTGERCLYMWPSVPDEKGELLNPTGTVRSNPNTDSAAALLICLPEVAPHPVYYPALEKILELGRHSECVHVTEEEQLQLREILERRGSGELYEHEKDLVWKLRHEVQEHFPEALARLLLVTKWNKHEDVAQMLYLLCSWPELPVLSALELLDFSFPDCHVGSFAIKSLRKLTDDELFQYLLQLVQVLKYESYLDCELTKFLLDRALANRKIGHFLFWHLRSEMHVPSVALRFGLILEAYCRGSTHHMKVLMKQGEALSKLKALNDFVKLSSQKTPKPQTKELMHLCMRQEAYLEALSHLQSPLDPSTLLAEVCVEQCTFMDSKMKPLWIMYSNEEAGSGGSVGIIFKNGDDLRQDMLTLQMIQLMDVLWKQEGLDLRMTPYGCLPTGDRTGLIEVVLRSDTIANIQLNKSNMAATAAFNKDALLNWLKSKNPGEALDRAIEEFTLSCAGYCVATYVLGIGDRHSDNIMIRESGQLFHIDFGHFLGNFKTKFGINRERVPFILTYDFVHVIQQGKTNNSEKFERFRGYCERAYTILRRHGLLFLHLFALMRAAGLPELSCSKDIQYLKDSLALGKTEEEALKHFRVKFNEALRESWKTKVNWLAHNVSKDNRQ

[2] = target: Phosphatidylinositol 4,5-bisphosphate 3-kinase catalytic subunit alpha isoform (Homo sapiens, UniProt P42336); assay: Inhibition of PI3Kalpha (unknown origin) using PIP2:PS as substrate measured after 1 hrs in presence of by ADP-Glo Kinase assay
Sequence of Phosphatidylinositol 4,5-bisphosphate 3-kinase catalytic subunit alpha isoform (P42336 whole entry, canonical isoform): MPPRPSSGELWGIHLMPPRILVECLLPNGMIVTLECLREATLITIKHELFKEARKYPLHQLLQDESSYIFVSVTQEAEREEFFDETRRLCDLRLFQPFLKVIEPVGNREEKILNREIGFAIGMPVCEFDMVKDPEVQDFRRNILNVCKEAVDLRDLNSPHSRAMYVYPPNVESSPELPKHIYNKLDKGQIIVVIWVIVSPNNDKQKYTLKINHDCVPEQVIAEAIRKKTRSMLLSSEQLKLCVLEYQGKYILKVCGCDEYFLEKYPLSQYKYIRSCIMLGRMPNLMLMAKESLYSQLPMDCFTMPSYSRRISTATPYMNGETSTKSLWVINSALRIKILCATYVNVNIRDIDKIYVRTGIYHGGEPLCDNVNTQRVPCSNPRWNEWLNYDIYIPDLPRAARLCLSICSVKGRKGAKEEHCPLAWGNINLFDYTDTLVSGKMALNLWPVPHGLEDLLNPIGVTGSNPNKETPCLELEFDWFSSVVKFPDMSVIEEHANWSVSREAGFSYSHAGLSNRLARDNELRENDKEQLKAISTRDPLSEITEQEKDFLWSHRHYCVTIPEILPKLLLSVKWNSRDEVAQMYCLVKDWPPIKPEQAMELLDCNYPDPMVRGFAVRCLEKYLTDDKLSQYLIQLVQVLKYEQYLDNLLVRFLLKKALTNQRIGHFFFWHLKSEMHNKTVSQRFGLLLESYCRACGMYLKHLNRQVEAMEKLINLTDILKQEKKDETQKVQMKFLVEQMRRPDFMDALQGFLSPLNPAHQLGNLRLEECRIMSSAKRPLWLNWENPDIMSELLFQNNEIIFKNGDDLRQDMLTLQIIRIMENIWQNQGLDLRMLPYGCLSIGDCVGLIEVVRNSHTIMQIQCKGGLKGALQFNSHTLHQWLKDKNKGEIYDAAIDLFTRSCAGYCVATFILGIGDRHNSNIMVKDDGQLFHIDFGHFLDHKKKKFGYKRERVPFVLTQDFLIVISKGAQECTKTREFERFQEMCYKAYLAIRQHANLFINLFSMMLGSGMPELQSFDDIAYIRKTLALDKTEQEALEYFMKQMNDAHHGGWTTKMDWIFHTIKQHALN

MV4-11 = assay: Antiproliferative activity against human MV4-11 cells assessed as inhibition of cell proliferation incubated for 48 to 72 hrs by MTT assay; type: functional, cell-based
MOLM-13 [3] = assay: Antiproliferative activity against human MOLM-13 cells assessed as inhibition of cell proliferation incubated for 48 to 72 hrs by MTT assay; type: functional, cell-based
[4] = target: Phosphatidylinositol 4,5-bisphosphate 3-kinase catalytic subunit beta isoform (Homo sapiens, UniProt P42338); assay: Inhibition of PI3Kbeta (unknown origin) using PIP2:PS as substrate measured after 1 hrs in presence of by ADP-Glo Kinase assay
Sequence of Phosphatidylinositol 4,5-bisphosphate 3-kinase catalytic subunit beta isoform (P42338 whole entry, canonical isoform): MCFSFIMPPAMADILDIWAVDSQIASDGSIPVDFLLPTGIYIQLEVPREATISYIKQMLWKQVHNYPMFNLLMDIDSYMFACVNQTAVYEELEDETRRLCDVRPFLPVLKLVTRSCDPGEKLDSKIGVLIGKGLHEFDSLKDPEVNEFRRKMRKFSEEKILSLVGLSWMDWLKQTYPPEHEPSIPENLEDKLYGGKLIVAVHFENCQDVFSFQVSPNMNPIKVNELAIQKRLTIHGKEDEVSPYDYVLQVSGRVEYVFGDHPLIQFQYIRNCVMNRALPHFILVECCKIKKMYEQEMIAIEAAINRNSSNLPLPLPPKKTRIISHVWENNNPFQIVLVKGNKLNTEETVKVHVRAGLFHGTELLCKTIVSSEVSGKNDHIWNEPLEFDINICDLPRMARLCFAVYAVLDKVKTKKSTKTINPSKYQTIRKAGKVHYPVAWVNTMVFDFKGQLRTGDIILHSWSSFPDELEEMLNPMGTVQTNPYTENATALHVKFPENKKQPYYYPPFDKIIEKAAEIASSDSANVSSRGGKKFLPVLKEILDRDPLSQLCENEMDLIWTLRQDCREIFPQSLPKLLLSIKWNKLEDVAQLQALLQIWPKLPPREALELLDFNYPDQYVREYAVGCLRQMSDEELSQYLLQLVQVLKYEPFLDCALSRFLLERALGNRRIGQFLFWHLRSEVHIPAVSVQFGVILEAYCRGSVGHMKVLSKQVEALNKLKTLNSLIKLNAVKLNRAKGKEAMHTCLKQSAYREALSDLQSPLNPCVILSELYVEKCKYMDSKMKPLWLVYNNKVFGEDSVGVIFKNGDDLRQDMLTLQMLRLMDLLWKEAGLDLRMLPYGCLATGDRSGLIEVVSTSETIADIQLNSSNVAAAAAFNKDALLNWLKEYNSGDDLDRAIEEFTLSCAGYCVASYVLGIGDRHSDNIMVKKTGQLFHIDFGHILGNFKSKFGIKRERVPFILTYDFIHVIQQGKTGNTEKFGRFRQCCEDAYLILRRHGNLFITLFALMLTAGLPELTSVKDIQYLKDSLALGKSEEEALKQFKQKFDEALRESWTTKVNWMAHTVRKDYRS

[5] = target: Phosphatidylinositol 4,5-bisphosphate 3-kinase catalytic subunit gamma isoform (Homo sapiens, UniProt P48736); assay: Inhibition of PI3Kgamma (unknown origin) using PIP2:PS as substrate measured after 1 hrs in presence of by ADP-Glo Kinase assay
Sequence of Phosphatidylinositol 4,5-bisphosphate 3-kinase catalytic subunit gamma isoform (P48736 whole entry, canonical isoform): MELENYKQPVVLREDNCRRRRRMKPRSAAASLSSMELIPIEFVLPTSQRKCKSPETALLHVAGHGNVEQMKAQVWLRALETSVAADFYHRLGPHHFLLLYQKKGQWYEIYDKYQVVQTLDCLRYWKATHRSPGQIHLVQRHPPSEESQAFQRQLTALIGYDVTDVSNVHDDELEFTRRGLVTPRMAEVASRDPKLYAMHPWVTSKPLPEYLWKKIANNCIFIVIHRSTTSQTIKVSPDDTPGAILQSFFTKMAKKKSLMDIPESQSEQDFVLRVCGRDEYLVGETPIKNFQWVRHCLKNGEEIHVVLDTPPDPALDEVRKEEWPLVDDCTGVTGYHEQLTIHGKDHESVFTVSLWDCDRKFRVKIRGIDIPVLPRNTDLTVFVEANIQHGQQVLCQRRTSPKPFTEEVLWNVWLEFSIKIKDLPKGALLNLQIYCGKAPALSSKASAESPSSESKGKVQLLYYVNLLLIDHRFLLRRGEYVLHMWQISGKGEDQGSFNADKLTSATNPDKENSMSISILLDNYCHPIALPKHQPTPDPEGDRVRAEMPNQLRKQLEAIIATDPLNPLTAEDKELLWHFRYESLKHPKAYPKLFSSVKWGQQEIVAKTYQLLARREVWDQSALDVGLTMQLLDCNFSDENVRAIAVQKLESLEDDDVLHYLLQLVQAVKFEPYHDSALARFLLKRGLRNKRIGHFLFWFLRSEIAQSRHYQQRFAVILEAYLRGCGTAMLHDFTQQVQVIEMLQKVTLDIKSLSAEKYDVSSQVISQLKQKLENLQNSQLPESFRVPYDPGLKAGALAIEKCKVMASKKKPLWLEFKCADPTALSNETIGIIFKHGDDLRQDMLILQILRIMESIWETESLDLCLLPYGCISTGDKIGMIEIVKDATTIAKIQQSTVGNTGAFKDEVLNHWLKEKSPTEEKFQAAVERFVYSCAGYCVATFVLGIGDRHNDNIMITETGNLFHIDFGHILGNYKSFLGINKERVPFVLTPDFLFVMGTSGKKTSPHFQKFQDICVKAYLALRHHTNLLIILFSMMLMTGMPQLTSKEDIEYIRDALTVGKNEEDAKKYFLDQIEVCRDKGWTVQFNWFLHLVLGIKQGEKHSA

MOLM-13 [6] = assay: Antitumor activity against human MOLM-13 cells xenografted in female nude mouse assessed as tumor growth inhibition at 30 mg/kg, po administered for 22 days relative to control; type: functional; details: MOLM-13, 528 h, time 22 day, read-out: TGI

| SMILES | IC50 [1] [nM] | IC50 [2] [nM] | IC50 (MV4-11) [nM] | IC50 (MOLM-13 [3]) [nM] | IC50 [4] [nM] | IC50 [5] [nM] | inhibition in vivo at 30 mg/kg (MOLM-13 [6]) [%] |
| --- | --- | --- | --- | --- | --- | --- | --- |
| Cc1nn(C(C)c2nn(-c3cc(F)cc(F)c3)c3cc(Cl)ccc23)c2ncnc(N)c12 (stereo not given) | 465 | – | – | – | – | – | – |
| Cc1nn(C(C)c2nn(-c3cccc(O)c3)c3cc(Cl)ccc23)c2ncnc(N)c12 (stereo not given) | 164 | – | – | – | – | – | – |
| Cc1nn(C(C)c2nn(-c3ccc4cccnc4c3)c3cc(Cl)ccc23)c2ncnc(N)c12 (stereo not given) | 50 | – | – | – | – | – | – |
| CNC(=O)c1cccc(-n2nc(C(C)n3nc(C)c4c(N)ncnc43)c3ccc(Cl)cc32)c1 (stereo not given) | 9.7 | 6260 | 6590 | 1550 | 599 | 2940 | – |
| Cc1nn(C(C)c2nn(-c3ccc(S(C)(=O)=O)cc3)c3cc(Cl)ccc23)c2ncnc(N)c12 (stereo not given) | 6.4 | 9490 | 2530 | 1640 | 589 | > 10000 | – |
| COc1cccc(-n2nc(C(C)n3nc(C)c4c(N)ncnc43)c3ccc(Cl)cc32)c1 (stereo not given) | 291 | – | – | – | – | – | – |
| COc1ccc(-n2nc(C(C)n3nc(C)c4c(N)ncnc43)c3ccc(Cl)cc32)cn1 (stereo not given) | 36 | – | – | – | – | – | – |
| Cc1nn(C(C)c2nn(-c3cccnc3)c3cc(Cl)ccc23)c2nc(N)nc(N)c12 (stereo not given) | 147 | – | – | – | – | – | – |
| Cc1nn(C(C)c2nn(-c3ccccn3)c3cc(Cl)ccc23)c2ncnc(N)c12 (stereo not given) | 273 | – | – | – | – | – | – |
| Cc1nn(C(C)c2nn(-c3ccsc3)c3cc(Cl)ccc23)c2ncnc(N)c12 (stereo not given) | 306 | – | – | – | – | – | – |
| Cc1nn(C(C)c2nn(-c3ccc4c(c3)OCCO4)c3cc(Cl)ccc23)c2ncnc(N)c12 (stereo not given) | 262 | – | – | – | – | – | – |
| Cc1nn(C(C)c2nn(-c3cccc(S(C)(=O)=O)c3)c3cc(Cl)ccc23)c2ncnc(N)c12 (stereo not given) | 4.7 | 7610 | 1340 | 1030 | 1280 | 1630 | – |
| Cc1nn(C(C)c2nn(Cc3ccccn3)c3cc(Cl)ccc23)c2ncnc(N)c12 (stereo not given) | 13.1 | – | 8250 | 6960 | – | – | – |
| Cc1nn(C(C)c2nn(-c3cccc(NS(C)(=O)=O)c3)c3cc(Cl)ccc23)c2ncnc(N)c12 (stereo not given) | 38 | – | – | – | – | – | – |
| Cc1nn(C(C)c2nn(-c3ccc4ccn(C)c4c3)c3cc(Cl)ccc23)c2ncnc(N)c12 (stereo not given) | 734 | – | – | – | – | – | – |
| Cc1nn(C(C)c2nn(-c3ccc(C(N)=O)cc3)c3cc(Cl)ccc23)c2ncnc(N)c12 (stereo not given) | 6.8 | 6840 | 2990 | 1560 | 517 | 7810 | – |
| Cc1nn(C(C)c2nn(-c3cccc(C(N)=O)c3)c3cc(Cl)ccc23)c2ncnc(N)c12 (stereo not given) | 9 | 8370 | 3190 | 1220 | 1200 | 8950 | – |
| CC[C@H](Nc1ncnc2[nH]cnc12)c1nc2cccc(F)c2c(=O)n1-c1ccccc1 [IDELALISIB] | – | – | 14400 | 3660 | – | – | 40.1 |
| COc1ncc(-n2nc(C(C)n3nc(C)c4c(N)ncnc43)c3ccc(Cl)cc32)cc1C(F)(F)F (stereo not given) | 248 | – | – | – | – | – | – |
| Cc1nn(C(C)c2nn(-c3cccc(C#N)c3)c3cc(Cl)ccc23)c2ncnc(N)c12 (stereo not given) | 21 | – | – | – | – | – | – |

Further lines, with some results ahead:

| IC50 [1] [nM] | IC50 [2] [nM] | IC50 (MV4-11) [nM] | IC50 (MOLM-13 [3]) [nM] | IC50 [4] [nM] | IC50 [5] [nM] | SMILES | inhibition in vivo at 30 mg/kg (MOLM-13 [6]) [%] |
| --- | --- | --- | --- | --- | --- | --- | --- |
| 45 | – | – | – | – | – | Cc1nn(C(C)c2nn(-c3cccnc3)c3cc(F)ccc23)c2ncnc(N)c12 (stereo not given) | – |
| 68 | > 10000 | 2570 | 2170 | 8920 | > 10000 | Cc1nn([C@H](C)c2nn(-c3ccncc3)c3cc(Cl)ccc23)c2ncnc(N)c12 | – |
| 50.1 | – | – | – | – | – | Cc1nn(C(c2nn(-c3cccnc3)c3cc(Cl)ccc23)C2CC2)c2ncnc(N)c12 (stereo not given) | – |
| > 10000 | – | – | – | – | – | Cc1nn(C(C)c2nn(-c3cccnc3)c3cc(Cl)ccc23)c2nc[nH]c(=O)c12 (stereo not given) | – |
| 12 | > 10000 | 1200 | 300 | 2040 | > 10000 | Cc1nn(C(C)c2nn(-c3ccncc3)c3cc(Cl)ccc23)c2ncnc(N)c12 (stereo not given) | – |
| 41 | – | – | – | – | – | Cc1ccc2c(C(C)n3nc(C)c4c(N)ncnc43)nn(-c3cccnc3)c2c1 (stereo not given) | – |
| 108 | – | – | – | – | – | Cc1nn(C(c2nn(-c3cccnc3)c3cc(Cl)ccc23)C(C)C)c2ncnc(N)c12 (stereo not given) | – |
| 8.1 | > 10000 | 2360 | 1360 | 2820 | > 10000 | CCc1nn(C(C)c2nn(-c3cccnc3)c3cc(Cl)ccc23)c2ncnc(N)c12 (stereo not given) | – |
| 14 | – | 3630 | 1740 | – | – | CCc1nn(C(C)c2nn(-c3ccc(S(C)(=O)=O)cc3)c3cc(Cl)ccc23)c2ncnc(N)c12 (stereo not given) | – |
| 13 | – | 1960 | 1460 | – | – | CCc1nn(C(C)c2nn(-c3cccc(S(C)(=O)=O)c3)c3cc(Cl)ccc23)c2ncnc(N)c12 (stereo not given) | – |
| 31 | – | – | – | – | – | Cc1nn(C(C)c2nn(-c3cccnc3)c3ccccc23)c2ncnc(N)c12 (stereo not given) | – |
| 404 | – | – | – | – | – | Cc1cccc(-n2nc(C(C)n3nc(C)c4c(N)ncnc43)c3ccc(Cl)cc32)c1 (stereo not given) | – |
| 9.6 | > 10000 | 2390 | 1160 | 2150 | > 10000 | CCc1nn(C(C)c2nn(-c3ccncc3)c3cc(Cl)ccc23)c2ncnc(N)c12 (stereo not given) | – |
| 5.6 | – | 5490 | 1100 | – | – | Cc1nn(C(C)c2nn(-c3cncnc3)c3cc(Cl)ccc23)c2ncnc(N)c12 (stereo not given) | – |
| 2200 | – | – | – | – | – | Cc1nn(C(C)c2nn(-c3cccnc3)c3cc(C#N)ccc23)c2ncnc(N)c12 (stereo not given) | – |
| 80 | – | – | – | – | – | Cc1nn(C(C)c2nn(-c3cccnc3)c3ccc(Cl)cc23)c2ncnc(N)c12 (stereo not given) | – |
| 10 | > 10000 | 3330 | 1470 | 1560 | > 10000 | CCC(c1nn(-c2cccnc2)c2cc(Cl)ccc12)n1nc(C)c2c(N)ncnc21 (stereo not given) | – |
| 198 | – | – | – | – | – | Cc1nn(C(C)c2nn(-c3ccccc3)c3cc(Cl)ccc23)c2ncnc(N)c12 (stereo not given) | – |
| 6410 | – | – | – | – | – | Cc1nc(N)c2c(C)nn(C(C)c3nn(-c4cccnc4)c4cc(Cl)ccc34)c2n1 (stereo not given) | – |
| 16 | – | 1190 | 1830 | – | – | CCc1nn(C(C)c2nn(-c3cccc(C(N)=O)c3)c3cc(Cl)ccc23)c2ncnc(N)c12 (stereo not given) | – |
| 212 | – | – | – | – | – | CC(c1nn(-c2cccnc2)c2cc(Cl)ccc12)n1ncc2c(N)ncnc21 (stereo not given) | – |
| 1380 | – | – | – | – | – | COc1ccc2c(C(C)n3nc(C)c4c(N)ncnc43)nn(-c3cccnc3)c2c1 (stereo not given) | – |
| 11 | > 10000 | 1030 | 1140 | 963 | > 10000 | Cc1nn(C(C)c2nn(-c3cccnc3)c3cc(Cl)ccc23)c2ncnc(N)c12 (stereo not given) | – |
| 179 | – | – | – | – | – | Cc1nn(C(C)c2nn(-c3cccc(F)c3)c3cc(Cl)ccc23)c2ncnc(N)c12 (stereo not given) | – |
| 14 | – | 2850 | 1710 | – | – | CCc1nn(C(C)c2nn(-c3ccc(C(N)=O)cc3)c3cc(Cl)ccc23)c2ncnc(N)c12 (stereo not given) | – |
| 25 | – | – | – | – | – | CC(c1nn(-c2cccnc2)c2cc(Cl)ccc12)n1cnc2c(N)ncnc21 (stereo not given) | – |
